Assay results from ChEMBL document CHEMBL4396971, “Discovery of potent and orally bioavailable indazole-based glucagon receptor antagonists for the treatment of type 2 diabetes” (Bioorg Med Chem Lett, 2019).

test: Stability in human liver microsomes assessed as parent compound remaining at 1 uM incubated for 10 mins; assay type: ADME, Microsome; details: read-out: Stability

| remaining at 10 min, 1 µM [%] | Compound |
| --- | --- |
| 81 | Cc1cc(C(F)(F)F)ccc1-c1cc2cnn([C@@H](CC(C)C)c3ccc(C(=O)NCCC(=O)O)cc3)c2cc1C |

test: Stability in mouse liver microsomes assessed as parent compound remaining at 1 uM incubated for 10 mins; assay type: ADME, Microsome; details: liver microsomes, read-out: Stability

| remaining at 10 min, 1 µM [%] | Compound |
| --- | --- |
| 70 | Cc1cc(C(F)(F)F)ccc1-c1cc2cnn([C@@H](CC(C)C)c3ccc(C(=O)NCCC(=O)O)cc3)c2cc1C |

test: Stability in rat liver microsomes assessed as parent compound remaining at 1 uM incubated for 10 mins; assay type: ADME, Microsome; details: read-out: Stability

| remaining at 10 min, 1 µM [%] | Compound |
| --- | --- |
| 116 | Cc1cc(C(F)(F)F)ccc1-c1cc2cnn([C@@H](CC(C)C)c3ccc(C(=O)NCCC(=O)O)cc3)c2cc1C |

test: Stability in dog liver microsomes assessed as parent compound remaining at 1 uM incubated for 10 mins; assay type: ADME, Canis lupus familiaris, Microsome; details: liver microsomes, read-out: Stability

| remaining at 10 min, 1 µM [%] | Compound |
| --- | --- |
| 80 | Cc1cc(C(F)(F)F)ccc1-c1cc2cnn([C@@H](CC(C)C)c3ccc(C(=O)NCCC(=O)O)cc3)c2cc1C |

test: Clearance in C57 mouse at 5 mg/kg, iv or 20 mg/kg, po; assay type: ADME, organism-based; details: in vivo

| clearance [mL/min/kg] | Compound |
| --- | --- |
| 1.61 | Cc1cc(C(F)(F)F)ccc1-c1cc2cnn([C@@H](CC(C)C)c3ccc(C(=O)NCCC(=O)O)cc3)c2cc1C |

test: Clearance in Sprague-Dawley rat at 2 mg/kg, iv or 10 mg/kg, po; assay type: ADME, organism-based; details: in vivo

| clearance [mL/min/kg] | Compound |
| --- | --- |
| 26.8 | Cc1cc(C(F)(F)F)ccc1-c1cc2cnn([C@@H](CC(C)C)c3ccc(C(=O)NCCC(=O)O)cc3)c2cc1C |

test: Clearance in dog at 2 mg/kg, iv or 10 mg/kg, po; assay type: ADME, organism-based, Canis lupus familiaris; details: in vivo

| clearance [mL/min/kg] | Compound |
| --- | --- |
| 0.21 | Cc1cc(C(F)(F)F)ccc1-c1cc2cnn([C@@H](CC(C)C)c3ccc(C(=O)NCCC(=O)O)cc3)c2cc1C |

test: Volume of distribution at steady state in C57 mouse at 5 mg/kg, iv or 20 mg/kg, po; assay type: ADME, organism-based; details: in vivo, read-out: Vdss

| Vd [L/kg] | Compound |
| --- | --- |
| 0.87 | Cc1cc(C(F)(F)F)ccc1-c1cc2cnn([C@@H](CC(C)C)c3ccc(C(=O)NCCC(=O)O)cc3)c2cc1C |

test: Volume of distribution at steady state in Sprague-Dawley rat at 2 mg/kg, iv or 10 mg/kg, po; assay type: ADME, organism-based; details: in vivo, read-out: Vdss

| Vd [L/kg] | Compound |
| --- | --- |
| 2.67 | Cc1cc(C(F)(F)F)ccc1-c1cc2cnn([C@@H](CC(C)C)c3ccc(C(=O)NCCC(=O)O)cc3)c2cc1C |

test: Volume of distribution at steady state in dog at 2 mg/kg, iv or 10 mg/kg, po; assay type: ADME, organism-based, Canis lupus familiaris; details: in vivo, read-out: Vdss

| Vd [L/kg] | Compound |
| --- | --- |
| 0.22 | Cc1cc(C(F)(F)F)ccc1-c1cc2cnn([C@@H](CC(C)C)c3ccc(C(=O)NCCC(=O)O)cc3)c2cc1C |

test: Half life in C57 mouse at 5 mg/kg, iv; assay type: ADME, organism-based; details: in vivo

| half-life [min] | Compound |
| --- | --- |
| 432 | Cc1cc(C(F)(F)F)ccc1-c1cc2cnn([C@@H](CC(C)C)c3ccc(C(=O)NCCC(=O)O)cc3)c2cc1C |

test: Half life in Sprague-Dawley rat at 2 mg/kg, iv; assay type: ADME, organism-based; details: in vivo

| half-life [min] | Compound |
| --- | --- |
| 96 | Cc1cc(C(F)(F)F)ccc1-c1cc2cnn([C@@H](CC(C)C)c3ccc(C(=O)NCCC(=O)O)cc3)c2cc1C |

test: Half life in dog at 2 mg/kg, iv; assay type: ADME, organism-based, Canis lupus familiaris; details: in vivo

| half-life [min] | Compound |
| --- | --- |
| 798 | Cc1cc(C(F)(F)F)ccc1-c1cc2cnn([C@@H](CC(C)C)c3ccc(C(=O)NCCC(=O)O)cc3)c2cc1C |

test: Half life in C57 mouse at 20 mg/kg, po; assay type: ADME, organism-based; details: in vivo

| half-life [min] | Compound |
| --- | --- |
| 390 | Cc1cc(C(F)(F)F)ccc1-c1cc2cnn([C@@H](CC(C)C)c3ccc(C(=O)NCCC(=O)O)cc3)c2cc1C |

test: Half life in Sprague-Dawley rat at 10 mg/kg, po; assay type: ADME, organism-based; details: in vivo

| half-life [min] | Compound |
| --- | --- |
| 186 | Cc1cc(C(F)(F)F)ccc1-c1cc2cnn([C@@H](CC(C)C)c3ccc(C(=O)NCCC(=O)O)cc3)c2cc1C |

test: Half life in dog at 10 mg/kg, po; assay type: ADME, organism-based, Canis lupus familiaris; details: in vivo

| half-life [min] | Compound |
| --- | --- |
| 1010 | Cc1cc(C(F)(F)F)ccc1-c1cc2cnn([C@@H](CC(C)C)c3ccc(C(=O)NCCC(=O)O)cc3)c2cc1C |

test: AUClast in C57 mouse at 5 mg/kg, iv or 20 mg/kg, po; assay type: ADME, organism-based; details: in vivo

| AUC(0-t) [µM·h] | Compound |
| --- | --- |
| 242 | Cc1cc(C(F)(F)F)ccc1-c1cc2cnn([C@@H](CC(C)C)c3ccc(C(=O)NCCC(=O)O)cc3)c2cc1C |
